These are literature values, as cited in US10045948B2, “Pramipexole-containing transdermal patch for treatment of neurodegenerative disease” (MEDRX CO., LTD., priority 2014, dated 2018).

The conditions of the data set: in vivo.

Turning to rotigotine, the “Patients with rash and other types of inflammation at the application site” value is recorded as 40-50%.
